From patent US5646173A, “Tricyclic pyrrole derivatives useful as 5-HT selective agents” (Hoffmann-La Roche Inc., priority 1993, dated 1997)
Counter-ions that a name gives are not always drawn. Like-named read-outs stand apart in the source and are kept apart here.

Tests used:
5HT1A receptor = assay: 3H-8-OH-DPAT binding assay (Method I a); details: read-out: IC50, test method a
Experimental: The binding of the compounds of formula I in accordance with the invention to serotonin receptors was determined in vitro by standard methods. The preparations were investigated in accordance with the assays given hereinafter: […]

5HT2C receptor = target: T1, 5HT2C receptor (Sus scrofa, UniProt K7GSR7); assay: 3H-mesulergine binding assay (Method I b)
T1 construct: from tissue
T1 sequence (K7GSR7 1-457): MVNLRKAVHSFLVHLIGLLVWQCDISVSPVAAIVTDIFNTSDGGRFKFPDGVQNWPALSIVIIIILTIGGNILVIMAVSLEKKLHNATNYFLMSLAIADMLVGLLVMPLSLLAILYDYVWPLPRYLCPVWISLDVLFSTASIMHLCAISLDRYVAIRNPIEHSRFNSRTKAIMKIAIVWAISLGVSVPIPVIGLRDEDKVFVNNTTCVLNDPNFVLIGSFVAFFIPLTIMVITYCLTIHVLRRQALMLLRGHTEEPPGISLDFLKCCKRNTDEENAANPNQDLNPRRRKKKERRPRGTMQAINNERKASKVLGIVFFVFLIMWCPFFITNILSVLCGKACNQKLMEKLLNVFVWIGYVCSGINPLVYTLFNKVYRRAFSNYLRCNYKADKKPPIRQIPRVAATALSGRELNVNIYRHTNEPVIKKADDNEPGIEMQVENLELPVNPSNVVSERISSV
Experimental: (§1) The binding of the compounds of formula I in accordance with the invention to serotonin receptors was determined in vitro by standard methods. The preparations were investigated in accordance with the assays given hereinafter:
b) For the binding to the 5HT2C receptor in accordance with the ^3 H-mesulergine binding assay according to the method of A. Pazos et al., Europ. J. Pharmacol. 106, 539-546 or. D. Hoyer, Receptor Research 8, 59-81 (1988).

5HT2A receptor = target: T2, 5HT2A receptor (Rattus norvegicus, UniProt P14842); assay: biochemical; assay type: binding
T2 construct: from tissue; host or cells: rat frontal cortex membranes (inferred from the cited method)
Experimental: as §1
c) For the binding to the 5HT2A receptor in accordance with the ^3 H-ketanserine binding assay according to the method of J. E. Leysen, Molecular Pharmacology 21, 301-304 (1981).

[1] = 5HT2C, 3H-mesulergine, Method I, read-out: IC50, test method b

T2 sequence (P14842 whole entry): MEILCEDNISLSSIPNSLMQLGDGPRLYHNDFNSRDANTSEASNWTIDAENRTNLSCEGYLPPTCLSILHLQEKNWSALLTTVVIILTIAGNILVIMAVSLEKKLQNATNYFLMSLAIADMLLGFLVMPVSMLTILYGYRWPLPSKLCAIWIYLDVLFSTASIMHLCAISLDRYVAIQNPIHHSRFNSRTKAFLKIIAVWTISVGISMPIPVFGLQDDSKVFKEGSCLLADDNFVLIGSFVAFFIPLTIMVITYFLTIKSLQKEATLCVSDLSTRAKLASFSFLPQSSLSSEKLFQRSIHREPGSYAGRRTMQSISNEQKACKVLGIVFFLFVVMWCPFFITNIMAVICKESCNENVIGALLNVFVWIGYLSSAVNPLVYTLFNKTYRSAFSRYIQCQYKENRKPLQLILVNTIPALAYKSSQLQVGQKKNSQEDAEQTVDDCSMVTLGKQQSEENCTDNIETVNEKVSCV

CC(N)Cn1ccc2c1-c1cc(Cl)ccc1C2 (racemic) [Example 21, (RS)-2-(7-chloro-1,4-dihydro-indeno[1,2-b]pyrrol-1-yl)-1-methyl-ethylaminefumarate (1:0.5)]
IC50 (5HT1A receptor): 1350 nM | IC50 (5HT2C receptor): 56.6 nM | IC50 (5HT2A receptor): 2540 nM

COc1ccc2c(c1)-c1c(ccn1CC(C)N)C2 (racemic) [Example 22, (RS)-2-(7-methoxy-1,4-dihydro-indeno[1,2-b]pyrrol-1-yl)-1-methyl-ethylamine fumarate (1:0.5)]
IC50 (5HT1A receptor): 1590 nM | IC50 (5HT2C receptor): 30.4 nM | IC50 (5HT2A receptor): 1400 nM

CC(N)Cn1ccc2c1-c1ccccc1OC2 (racemic) [Example 34, (RS)-1-(1,4-dihydro-[1]benzopyrano-[4,3-b]pyrrol-1-yl)-1-methyl-ethylaminefumarate (1:0.5)]
IC50 (5HT1A receptor): 1620 nM | IC50 (5HT2C receptor; [1]): 107 nM | IC50 (5HT2A receptor): 2640 nM

CC(N)Cn1ccc2c1-c1ccc(Cl)cc1C2 (racemic) [Example 53, (RS)-2-(6-chloro-1,4-dihydro-indeno[1,2-b]pyrrol-1-yl)-1-methyl-ethylaminefumarate (1:0.5)]
IC50 (5HT1A receptor): 1100 nM | IC50 (5HT2C receptor): 308 nM | IC50 (5HT2A receptor): 11300 nM

COc1ccc2c(c1)Cc1ccn(CC(C)N)c1-2 (racemic) [Example 55, (RS)-2-(6-methoxy-1,4-dihydro-indeno[1,2-b]pyrrol-1-yl)-1-methyl-ethylamine fumarate (1:0.5)]
IC50 (5HT1A receptor): 1260 nM | IC50 (5HT2C receptor): 371 nM | IC50 (5HT2A receptor): 8350 nM

CC(N)Cn1ccc2c1-c1ccccc1SC2 (racemic) [Example 64]
IC50 (5HT1A receptor): 384 nM | IC50 (5HT2C receptor; [1]): 85.4 nM | IC50 (5HT2A receptor): 773 nM

COc1cccc2c1-c1c(ccn1CC(C)N)C2 (racemic) [Example 67, (RS)-2-(8-methoxy-1,4-dihydro-indeno[1,2-b]pyrrol-1-yl)-1-methyl-ethylamine fumarate (1:0.5)]
IC50 (5HT1A receptor): 1750 nM | IC50 (5HT2C receptor): 146 nM | IC50 (5HT2A receptor): 1070 nM

CC(N)Cn1ccc2c1-c1ccccc1C2c1ccccc1 (racemic) [Example 69, (2RS/4RS)-2-(4-phenyl-1,4-dihydro-indeno[1,2-b]pyrrol-1-yl)-1-methyl-ethylamine fumarate (1:0.86)]
IC50 (5HT1A receptor): 3460 nM | IC50 (5HT2C receptor): 143 nM | IC50 (5HT2A receptor): 854 nM

O=c1ccc2[nH]cc(C3=CCNCC3)c2[nH]1 [CP 93129, reference compound]
IC50 (5HT1A receptor): 1620 nM | IC50 (5HT2A receptor): 29200 nM

COc1ccc2ccc3ccn(C[C@H](C)N)c3c2c1 [Example 7, (S)-2-(8-methoxy-1H-benz[g]indol-1-yl)-1-methyl-ethylamine fumarate (1:0.5)]
IC50 (5HT1A receptor): 2160 nM | IC50 (5HT2C receptor): 24 nM | IC50 (5HT2A receptor): 1200 nM

COc1ccc2c(c1)-c1c(ccn1CCN)C2 [Example 23, 2-(7-methoxy-1,4-dihydro-indeno[1,2-b]pyrrol-1-yl)-ethylamine fumarate (1:1)]
IC50 (5HT1A receptor): 347 nM | IC50 (5HT2C receptor): 45.2 nM | IC50 (5HT2A receptor): 3340 nM

COc1ccc2c(c1)-c1c(ccn1C[C@@H](C)N)C2 [Example 28, (R)-2-(7-methoxy-1,4-dihydro-indeno[1,2-b]pyrrol-1-yl)-1-methyl-ethylaminefumarate (1:0.5)]
IC50 (5HT1A receptor): 1070 nM | IC50 (5HT2C receptor): 78.7 nM | IC50 (5HT2A receptor): 1630 nM

COc1ccc2c(c1)-c1c(ccn1C[C@@H](C)N)CC2 [Example 30, (R)-2-(4,5-dihydro-8-methoxy-1H-benz[g]indol-1-yl)-1-methyl-ethylamine fumarate (1:1)]
IC50 (5HT1A receptor): 298 nM | IC50 (5HT2C receptor): 58.1 nM | IC50 (5HT2A receptor): 479 nM

COc1ccc2ccc3ccn(C[C@@H](C)N)c3c2c1 [Example 31, (R)-2-(8-methoxy-1H-benz[g]indol-1-yl)-1-methyl-ethylamine fumarate (1:0.5)]
IC50 (5HT1A receptor): 337 nM | IC50 (5HT2C receptor): 28.1 nM | IC50 (5HT2A receptor): 874 nM

COc1ccc2ccc3ccn(CCN)c3c2c1 [Example 32, 2-(8-methoxy-1H-benz[g]indol-1-yl)-ethylamine fumarate (1:1)]
IC50 (5HT1A receptor): 139 nM | IC50 (5HT2C receptor): 18 nM | IC50 (5HT2A receptor): 1670 nM

COc1ccc2c(c1)-c1c(ccn1C(C)(C)N)CO2 [Example 54, (RS)1-(8-methoxy-1,4-dihydro[1]benzopyrano[4,3b]pyrrol1-yl)-1-methyl-ethylamine]
IC50 (5HT1A receptor): 825 nM | IC50 (5HT2C receptor; [1]): 116 nM | IC50 (5HT2A receptor; 5HT2A, 3H-ketanserine, Method I, read-out: IC50, test method c): 2590 nM

COc1ccc2c(c1)-c1c(ccn1CCN)CC2 [Example 59, 2-(4,5-dihydro-8-methoxy-1H-benz[g]indol-1-yl)-ethylamine fumarate (1:1)]
IC50 (5HT1A receptor): 97 nM | IC50 (5HT2C receptor): 23.8 nM | IC50 (5HT2A receptor): 1510 nM

CN1C[C@H](CNC(=O)OCc2ccccc2)C[C@@H]2c3cccc4c3c(cn4C)C[C@H]21 [Metergoline, reference compound]
IC50 (5HT2C receptor): 5.5 nM

COc1ccccc1N1CCN(CCCCN2C(=O)c3ccccc3C2=O)CC1 [NAN-190, reference compound]
IC50 (5HT1A receptor): 0.56 nM | IC50 (5HT2C receptor): 1800 nM | IC50 (5HT2A receptor): 581 nM

Cc1nc2ccccn2c(=O)c1CCN1CCC(C(=O)c2ccc(F)cc2)CC1 [Pirenperone, reference compound]
IC50 (5HT1A receptor): 2880 nM | IC50 (5HT2C receptor): 37 nM | IC50 (5HT2A receptor): 2.9 nM

COc1ccc2[nH]cc(C3=CCNCC3)c2c1 [RU 24969, reference compound]
IC50 (5HT1A receptor): 8 nM

Cc1nc2sccn2c(=O)c1CCN1CCC(=C(c2ccc(F)cc2)c2ccc(F)cc2)CC1 [Ritanserine, reference compound]
IC50 (5HT2C receptor): 37 nM

Clc1cccc(N2CCNCC2)c1 [mCPP, reference compound]
IC50 (5HT1A receptor): 227 nM | IC50 (5HT2C receptor; [1]): 53 nM | IC50 (5HT2A receptor): 319 nM
